# Measured values: patent US20230372313A1, “METHODS FOR REDUCING GLYCOSPHINGOLIPID CONCENTRATION IN BRAIN TISSUE AND METHODS OF TREATMENT OF NEURODEGENERATIVE DISEASES INVOLVING THE SAME” (GENZYME CORPORATION, priority 2020, published 2023)
# Read-outs that look alike come from different tables or passages of the source.
# Assays:
# [1] = CSF concentration of Compound 2 in PD participants (LC-MS/MS); assay type: in vivo, human; settings: for CSF concentration, mean: week 4, 2-4 h postdose; for CSF concentration, Fold increase vs low dose: week 4
# Description: (§1) Participants were randomised to 3 doses of once-daily orally administered Compound 2 or placebo, in sequential cohort design, and were followed up to 36 weeks (52 weeks for Japanese participants). Participants in the low-dose group received 4 mg of Compound 2 as a once daily oral dose; participants in the mid-dose group received 8 mg of Compound 2 a once daily oral dose; and participants in the high-dose group received 15 mg of Compound 2 a once daily oral dose.
# (§2) The secondary outcome was to evaluate the pharmacokinetic profile of Compound 2 in plasma and cerebrospinal fluid (CSF) over a 4-week period. Plasma pharmacokinetic parameters included maximum plasma concentration (Cmax), time to Cmax (tmax), and area under the plasma concentration versus time curve from 0 to 24 h (AUC0-24). All parameters were assessed at Week 0 and Week 4 after treatment. In addition, AUC0-48 was assessed at Week 0, trough plasma concentration observed just before treatment administration during repeated dosing (Ctrough) was assessed at Weeks 2, 4, and 8 (FIG. 3), and total systemic clearance from plasma at steady state (CLSS/F) was assessed at Week 4. Plasma samples were collected at 1 hour pre-dose and 1, 2, 4, 8, 24, and 48 hours postdose. Compound 2 concentration in plasma was determined using a liquid chromatography tandem mass spectrometry method with a lower limit of quantification of 0.500 ng/mL. CSF samples were collected by lumbar puncture during the screening period (within 14 days prior to randomisation) or on the day of randomisation, and at Week 4, within 2 to 4 hours postdose. Compound 2 concentration in CSF was determined using a liquid chromatography tandem mass spectrometry method with a lower limit of quantification of 0.100 ng/mL.
# [2] = Plasma pharmacokinetics of Compound 2 in PD participants (LC-MS/MS); assay type: in vivo, human
# Description: as §1
# Analyses were based on all available data from participants who enrolled in part 1 of the trial and were randomised to receive either Compound 2 or placebo for up to 52 weeks for Japanese participants and 36 weeks for the ROW population. As part 1 was an exploratory, dose-escalation study, the sample size was not based on a statistical power calculation. Participants included in the primary safety analyses were those who were randomized and received at least one dose of Compound 2 or placebo. A data monitoring committee was responsible for overseeing the safety of patients and the risk/benefit ratio throughout the study. Duration of exposure to Compound 2 was different among the doses, as per the sequential cohort design, with the low- and high-dose cohorts commencing the study first and last, respectively. For pharmacokinetics, plasma parameters were calculated using noncompartmental methods, from plasma Compound 2 concentrations obtained after single dose administration. AUC0-24 and AUC0-48 were calculated using the trapezoidal method over a predefined time period of 24 hours or 48 hours, respectively. CLss/F was calculated using the following equation: CLss/F=Dose/AUCτ, where τ is the dosing interval. For pharmacodynamics, percent reduction of plasma or CSF GL-1 from baseline was calculated as (value−baseline)/baseline×100. Formal statistical testing was not conducted on MDS-UPDRS scale assessments.
# as §2
# [3] = Japanese and ROW cohorts, 4, 8, 15 mg
smiles,measurement,setting,value
"CC(C)(NC(=O)O[C@@H]1CN2CCC1CC2)c1csc(-c2ccc(F)cc2)n1 [Compound 2, (S)-quinuclidin-3-yl (2-(2-(4-fluorophenyl)thiazol-4-yl)propan-2-yl)carbamate]","CSF concentration, mean","[1]; Japan, High 15 mg once daily oral, n = 3",10.1 ng/mL
same,"CSF concentration, mean","[1]; Japan, Low 4 mg once daily oral, n = 3",2.11 ng/mL
same,"CSF concentration, mean","[1]; Japan, Mid 8 mg once daily oral, n = 3",4.33 ng/mL
same,"CSF concentration, mean","[1]; ROW, High 15 mg once daily oral, sample not collected for 1 of n = 4",5.96 ng/mL
same,"CSF concentration, mean","[1]; ROW, Low 4 mg once daily oral, 1 of n = 4 not included",1.85 ng/mL
same,"CSF concentration, mean","[1]; ROW, Mid 8 mg once daily oral, 2 of n = 5 not included",3.15 ng/mL
same,"CSF concentration, Fold increase vs low dose","[1]; Japan, High 15 mg vs Low 4 mg",4.79 fold
same,"CSF concentration, Fold increase vs low dose","[1]; Japan, Mid 8 mg vs Low 4 mg",2.05 fold
same,"CSF concentration, Fold increase vs low dose","[1]; ROW, High 15 mg vs Low 4 mg",3.22 fold
same,"CSF concentration, Fold increase vs low dose","[1]; ROW, Mid 8 mg vs Low 4 mg",1.70 fold
same,increase of Compound 2 concentration in CSF with dose,[1]; [3],close to dose-proportional manner
same,increase of Compound 2 concentration in plasma with dose,[2]; [3],close to dose-proportional manner
same,Tmax,"[2]; human, plasma, oral, plasma, Week 4, Japanese participants, across all doses tested, read-out: median tmax values",2.1 to 4.33 h
same,Tmax,"[2]; human, plasma, oral, plasma, Week 4, ROW participants, across all doses tested, read-out: median tmax values",1.96 to 3.55 h
same,Cmax at 4 weeks,"[2]; human, plasma, po, 4 mg, Week 4, Japan, Low 4 mg once daily oral, n = 3",56.3 ng/mL
same,AUC(0-t),"[2]; human, plasma, po, 4 mg, plasma, Day 1, Japan, Low 4 mg oral, n = 3, read-out: AUC0-24, Geometric mean",390 ng·h/mL
same,AUC(0-t),"[2]; human, plasma, po, 4 mg, plasma, Day 1, Japan, Low 4 mg oral, n = 3, read-out: AUC0-24, mean",393 ng·h/mL
same,AUC(0-t),"[2]; human, plasma, po, 4 mg, plasma, Day 1, Japan, Low 4 mg oral, n = 3, read-out: AUC0-48, Geometric mean",660 ng·h/mL
same,AUC(0-t),"[2]; human, plasma, po, 4 mg, plasma, Day 1, Japan, Low 4 mg oral, n = 3, read-out: AUC0-48, mean",661 ng·h/mL
same,Cmax,"[2]; human, plasma, po, 4 mg, plasma, Day 1, Japan, Low 4 mg oral, n = 3, read-out: Cmax, Geometric mean",21.7 ng/mL
same,Cmax,"[2]; human, plasma, po, 4 mg, plasma, Day 1, Japan, Low 4 mg oral, n = 3, read-out: Cmax, mean",21.8 ng/mL
same,Tmax,"[2]; human, plasma, po, 4 mg, plasma, Day 1, Japan, Low 4 mg oral, n = 3, read-out: tmax, median",4.33 h
same,AUC(0-t),"[2]; human, plasma, po, 4 mg, plasma, Day 1, ROW, Low 4 mg oral, n = 4, read-out: AUC0-24, Geometric mean",249 ng·h/mL
same,AUC(0-t),"[2]; human, plasma, po, 4 mg, plasma, Day 1, ROW, Low 4 mg oral, n = 4, read-out: AUC0-24, mean",255 ng·h/mL
same,AUC(0-t),"[2]; human, plasma, po, 4 mg, plasma, Day 1, ROW, Low 4 mg oral, n = 4, read-out: AUC0-48, Geometric mean",419 ng·h/mL
same,AUC(0-t),"[2]; human, plasma, po, 4 mg, plasma, Day 1, ROW, Low 4 mg oral, n = 4, read-out: AUC0-48, mean",431 ng·h/mL
same,Cmax,"[2]; human, plasma, po, 4 mg, plasma, Day 1, ROW, Low 4 mg oral, n = 4, read-out: Cmax, Geometric mean",13.6 ng/mL
same,Cmax,"[2]; human, plasma, po, 4 mg, plasma, Day 1, ROW, Low 4 mg oral, n = 4, read-out: Cmax, mean",13.8 ng/mL
same,Tmax,"[2]; human, plasma, po, 4 mg, plasma, Day 1, ROW, Low 4 mg oral, n = 4, read-out: tmax, median",4.07 h
same,AUC(0-t),"[2]; human, plasma, po, 4 mg, plasma, Week 4, Japan, Low 4 mg once daily oral, n = 1, read-out: AUC0-24, Geometric mean",1130 ng·h/mL
same,AUC(0-t),"[2]; human, plasma, po, 4 mg, plasma, Week 4, Japan, Low 4 mg once daily oral, n = 1, read-out: AUC0-24, mean",1130 ng·h/mL
same,Cmax,"[2]; human, plasma, po, 4 mg, plasma, Week 4, Japan, Low 4 mg once daily oral, n = 3, read-out: Cmax, Geometric mean",56.2 ng/mL
same,Tmax,"[2]; human, plasma, po, 4 mg, plasma, Week 4, Japan, Low 4 mg once daily oral, n = 3, read-out: tmax, median",4.33 h
same,AUC(0-t),"[2]; human, plasma, po, 4 mg, plasma, Week 4, ROW, Low 4 mg once daily oral, n = 4, read-out: AUC0-24, Geometric mean",763 ng·h/mL
same,AUC(0-t),"[2]; human, plasma, po, 4 mg, plasma, Week 4, ROW, Low 4 mg once daily oral, n = 4, read-out: AUC0-24, mean",766 ng·h/mL
same,Cmax,"[2]; human, plasma, po, 4 mg, plasma, Week 4, ROW, Low 4 mg once daily oral, n = 4, read-out: Cmax, Geometric mean",41 ng/mL
same,Cmax,"[2]; human, plasma, po, 4 mg, plasma, Week 4, ROW, Low 4 mg once daily oral, n = 4, read-out: Cmax, mean",41.6 ng/mL
same,Tmax,"[2]; human, plasma, po, 4 mg, plasma, Week 4, ROW, Low 4 mg once daily oral, n = 4, read-out: tmax, median",1.96 h
same,AUC(0-t),"[2]; human, plasma, po, 8 mg, plasma, Day 1, Japan, Mid 8 mg oral, n = 3, read-out: AUC0-24, Geometric mean",596 ng·h/mL
same,AUC(0-t),"[2]; human, plasma, po, 8 mg, plasma, Day 1, Japan, Mid 8 mg oral, n = 3, read-out: AUC0-24, mean",623 ng·h/mL
same,AUC(0-t),"[2]; human, plasma, po, 8 mg, plasma, Day 1, Japan, Mid 8 mg oral, n = 3, read-out: AUC0-48, Geometric mean",1070 ng·h/mL
same,AUC(0-t),"[2]; human, plasma, po, 8 mg, plasma, Day 1, Japan, Mid 8 mg oral, n = 3, read-out: AUC0-48, mean",1130 ng·h/mL
same,Cmax,"[2]; human, plasma, po, 8 mg, plasma, Day 1, Japan, Mid 8 mg oral, n = 3, read-out: Cmax, Geometric mean",29.9 ng/mL
same,Cmax,"[2]; human, plasma, po, 8 mg, plasma, Day 1, Japan, Mid 8 mg oral, n = 3, read-out: Cmax, mean",31.3 ng/mL
same,Tmax,"[2]; human, plasma, po, 8 mg, plasma, Day 1, Japan, Mid 8 mg oral, n = 3, read-out: tmax, median",4.02 h
same,AUC(0-t),"[2]; human, plasma, po, 8 mg, plasma, Day 1, ROW, Mid 8 mg oral, n = 5, read-out: AUC0-24, Geometric mean",422 ng·h/mL
same,AUC(0-t),"[2]; human, plasma, po, 8 mg, plasma, Day 1, ROW, Mid 8 mg oral, n = 5, read-out: AUC0-24, mean",457 ng·h/mL
same,AUC(0-t),"[2]; human, plasma, po, 8 mg, plasma, Day 1, ROW, Mid 8 mg oral, n = 5, read-out: AUC0-48, Geometric mean",735 ng·h/mL
same,AUC(0-t),"[2]; human, plasma, po, 8 mg, plasma, Day 1, ROW, Mid 8 mg oral, n = 5, read-out: AUC0-48, mean",776 ng·h/mL
same,Cmax,"[2]; human, plasma, po, 8 mg, plasma, Day 1, ROW, Mid 8 mg oral, n = 5, read-out: Cmax, Geometric mean",23.8 ng/mL
same,Cmax,"[2]; human, plasma, po, 8 mg, plasma, Day 1, ROW, Mid 8 mg oral, n = 5, read-out: Cmax, mean",26.3 ng/mL
same,Tmax,"[2]; human, plasma, po, 8 mg, plasma, Day 1, ROW, Mid 8 mg oral, n = 5, read-out: tmax, median",4.17 h
same,AUC(0-t),"[2]; human, plasma, po, 8 mg, plasma, Week 4, Japan, Mid 8 mg once daily oral, n = 3, read-out: AUC0-24, Geometric mean",1620 ng·h/mL
same,AUC(0-t),"[2]; human, plasma, po, 8 mg, plasma, Week 4, Japan, Mid 8 mg once daily oral, n = 3, read-out: AUC0-24, mean",1650 ng·h/mL
same,Cmax,"[2]; human, plasma, po, 8 mg, plasma, Week 4, Japan, Mid 8 mg once daily oral, n = 3, read-out: Cmax, Geometric mean",82.8 ng/mL
